Results as given in patent publication US9932331B2, “Phenyl tetrahydroisoquinoline compound substituted with heteroaryl” (TAISHO PHARMACEUTICAL CO., LTD, priority 2014, dated 2018).
Counter-ions that a name gives are not always drawn.

Legend:
human NHE3 = biological target: T1, human NHE3 (Homo sapiens, UniProt P48764); assay: NHE3 inhibition test (recovery of intracellular pH in cell line stably expressing human NHE3); assay type: cell-based; conditions: OK cells deficient in endogenous NHE stably expressing human NHE3; BCECF fluorescence, initial rate of pH recovery; read-out: human NHE3 inhibitory activity IC50
T1 sequence (P48764 26-834): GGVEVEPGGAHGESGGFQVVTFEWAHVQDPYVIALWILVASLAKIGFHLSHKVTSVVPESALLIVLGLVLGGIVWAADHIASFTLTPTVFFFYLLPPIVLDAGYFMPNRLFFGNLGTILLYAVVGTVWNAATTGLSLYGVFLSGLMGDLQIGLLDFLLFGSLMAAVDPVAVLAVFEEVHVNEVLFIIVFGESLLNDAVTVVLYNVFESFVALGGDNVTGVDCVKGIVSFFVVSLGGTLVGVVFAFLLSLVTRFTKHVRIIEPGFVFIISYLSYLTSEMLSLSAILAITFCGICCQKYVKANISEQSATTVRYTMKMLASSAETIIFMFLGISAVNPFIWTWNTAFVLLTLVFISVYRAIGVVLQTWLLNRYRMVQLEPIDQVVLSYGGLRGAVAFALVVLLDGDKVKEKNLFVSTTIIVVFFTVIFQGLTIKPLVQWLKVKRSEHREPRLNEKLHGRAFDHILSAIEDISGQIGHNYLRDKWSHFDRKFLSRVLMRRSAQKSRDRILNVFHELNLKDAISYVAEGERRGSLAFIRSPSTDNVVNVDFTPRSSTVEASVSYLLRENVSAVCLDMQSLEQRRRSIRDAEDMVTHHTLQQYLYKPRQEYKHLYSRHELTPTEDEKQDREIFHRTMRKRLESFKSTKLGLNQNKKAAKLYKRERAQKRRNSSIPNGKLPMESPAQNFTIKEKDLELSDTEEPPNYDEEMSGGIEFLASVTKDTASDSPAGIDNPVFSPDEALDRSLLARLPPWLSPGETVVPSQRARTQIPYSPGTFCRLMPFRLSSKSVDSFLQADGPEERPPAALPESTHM
Summary of the method: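 Opossum kidney cells lacking endogenous NHE, stably expressing human NHE3, loaded with BCECF-AM and acid-loaded by NH4Cl washout. Compound in Na-free buffer, then Na-containing buffer (pH 7.4) added; initial pH-recovery rate by BCECF fluorescence, IC50 versus no-compound recovery.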

SD rat = assay: 32P-phosphate oral loading test using SD rat (phosphorus absorption inhibitory effect); assay type: in vivo; conditions: SD male rats, oral dose 3 mg/kg, plasma radioactivity 30 minutes after 32P-phosphate solution, vs control group; for inhibition in vivo at 3 mg/kg: Rattus norvegicus, 0.5 h, read-out: Rate of inhibition of phosphate absorption
Summary of the method: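 Male 8-week-old SD rats were dosed orally at 5 ml/kg with compound at 0.2 mg/mL or 0.6 mg/mL in water, then 5 min later given 32P-phosphate in 1.3 mM NaH2PO4 (5 ml/kg). Plasma radioactivity at 30 minutes was counted by liquid scintillation; inhibition (%) was calculated relative to the water-dosed control group.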

Structure (SMILES)	IC50 (human NHE3)	inhibition in vivo at 3 mg/kg (SD rat)	Rate of inhibition of phosphate absorption (SD rat)
CN1Cc2c(Cl)cc(Cl)cc2[C@H](c2cccc(-c3cn(CCOCCOCCOCCOCCNC(=O)NCCOCCOCCOCCOCCn4cc(-c5cccc([C@@H]6CN(C)Cc7c(Cl)cc(Cl)cc76)c5)nn4)nn3)c2)C1 [Example 7-43, 1,3-Bis[14-(4-{3-[(4S)-6,8-dichloro-2-methyl-1,2,3,4-tetrahydroisoquinolin-4-yl]phenyl}-1H-1,2,3-triazol-1-yl)-3,6,9,12-tetraoxatetradec-1-yl]urea hydrochloride]	8.5 nM	37%	
CN1Cc2c(Cl)cc(Cl)cc2[C@H](c2cccc(-c3cc(OCCOCCOCCNC(=O)[C@H](O)[C@@H](O)C(=O)NCCOCCOCCOc4cc(-c5cccc([C@@H]6CN(C)Cc7c(Cl)cc(Cl)cc76)c5)ncn4)ncn3)c2)C1 [Example 8-16, (2R,3R)-N,N′-Bis[2-(2-{2-[(6-{3-[(4S)-6,8-dichloro-2-methyl-1,2,3,4-tetrahydroisoquinolin-4-yl]phenyl}pyrimidin-4-yl)oxy]ethoxy}ethoxy)ethyl]-2,3-dihydroxybutanediamide hydrochloride]	7.6 nM	31%	
CN1Cc2c(Cl)cc(Cl)cc2[C@H](c2cccc(-c3cncc(NCCOCCOCCOCCNC(=O)[C@H](O)[C@@H](O)C(=O)NCCOCCOCCOCCNc4cncc(-c5cccc([C@@H]6CN(C)Cc7c(Cl)cc(Cl)cc76)c5)n4)n3)c2)C1 [Example 8-20, (2R,3R)-N,N′-Bis{2-[2-(2-{2-[(6-{3-[(4S)-6,8-dichloro-2-methyl-1,2,3,4-tetrahydroisoquinolin-4-yl]phenyl}pyrazin-2-yl)amino]ethoxy}ethoxy)ethoxy]ethyl}-2,3-dihydroxybutanediamide tetrahydrochloride]	3.3 nM	37%	
CN1Cc2c(Cl)cc(Cl)cc2[C@H](c2cccc(-c3cn(CCOCCOCCOCCNC(=O)NCCN(CCCCN(CCNC(=O)NCCOCCOCCOCCn4cc(-c5cccc([C@@H]6CN(C)Cc7c(Cl)cc(Cl)cc76)c5)nn4)C(N)=O)C(N)=O)nn3)c2)C1.O=CO [Example 7-42, 3,3′-Butane-1,4-diylbis {3-[16-(4-{3-[(4S)-6,8-dichloro-2-methyl-1,2,3,4-tetrahydroisoquinolin-4-yl]phenyl}-1H-1,2,3-triazol-1-yl)-4-oxo-8,11,14-trioxa-3,5-diazahexadec-1-yl]urea}formate]	5.5 nM		29%
CN1Cc2c(Cl)cc(Cl)cc2[C@H](c2cccc(-c3ccc(C(=O)NCCOCCOCCNC(=O)NCCCCNC(=O)NCCOCCOCCNC(=O)c4ccc(-c5cccc([C@@H]6CN(C)Cc7c(Cl)cc(Cl)cc76)c5)cn4)nc3)c2)C1 [Example 7-18, N,N′-(10,17-Dioxo-3,6,21,24-tetraoxa-9,11,16,18-tetraazahexacosane-1,26-diyl)bis(5-{3-[(4S)-6,8-dichloro-2-methyl-1,2,3,4-tetrahydroisoquinolin-4-yl]phenyl}pyridine-2-carboxamide) hydrochloride]	5.6 nM	49%	
CN1Cc2c(Cl)cc(Cl)cc2[C@H](c2cccc(-c3cc(NCCOCCOCCNC(=O)NCCCCNC(=O)NCCOCCOCCNc4cnnc(-c5cccc([C@@H]6CN(C)Cc7c(Cl)cc(Cl)cc76)c5)c4)cnn3)c2)C1 [Example 7-6, 1,1′-Butane-1,4-diylbis {3-[2-(2-{2-[(6-{3-[(4S)-6,8-dichloro-2-methyl-1,2,3,4-tetrahydroisoquinolin-4-yl]phenyl}pyridazin-4-yl)amino]ethoxy}ethoxy)ethyl]urea}pentahydrochloride]	10 nM	24%	
CN1Cc2c(Cl)cc(Cl)cc2[C@H](c2cccc(-c3cc(NCCOCCOCCOCCNC(=O)NCCCCNC(=O)NCCOCCOCCOCCNc4cnnc(-c5cccc([C@@H]6CN(C)Cc7c(Cl)cc(Cl)cc76)c5)c4)cnn3)c2)C1 [Example 7-19, 1,1′-Butane-1,4-diylbis(3-{2-[2-(2-{2-[(6-{3-[(4S)-6,8-dichloro-2-methyl-1,2,3,4-tetrahydroisoquinolin-4-yl]phenyl}pyridazin-4-yl)amino]ethoxy}ethoxy)ethoxy]ethyl}urea) hexahydrochloride]	17.7 nM	19%	
CN1Cc2c(Cl)cc(Cl)cc2[C@H](c2cccc(-c3cncc(NCCOCCOCCNC(=O)CCC(=O)NCCOCCOCCNc4cncc(-c5cccc([C@@H]6CN(C)Cc7c(Cl)cc(Cl)cc76)c5)n4)n3)c2)C1 [Example 8-6, N,N′-Bis[2-(2-{2-[(6-{3-[(4S)-6,8-dichloro-2-methyl-1,2,3,4-tetrahydroisoquinolin-4-yl]phenyl}pyrazin-2-yl)amino]ethoxy}ethoxy)ethyl]butanediamide pentahydrochloride]	15.5 nM	26%	
